This data set can be described thus: in vitro. The note with it: human, hela cells, % viability.
A word on the viability: it is a read-out of living cells in per cent, often relative to untreated cells. Regarding `CCc1cccc(CC)c1NC(=O)CN(c1cccc(Cl)c1Cl)S(C)(=O)=O` [CBK265934], the viability at 28.5 h, 10 µM amounted to 103%. Under `OCCN(CCO)c1nc(-c2ccccc2)nc2sc(-c3ccccc3)cc12` [CBK265935] stands 105%; under `COCCn1c(SCc2ccc([N+](=O)[O-])cc2)nnc1-c1ccccc1` [CBK265937], 89.6%.

Take `Cc1sc2ncnc(SCC(=O)Nc3sc4c(c3C#N)CCCC4)c2c1-c1ccccc1` [CBK265938]: the viability at 28.5 h, 10 µM stood at 93.3%. As for `NCc1oc(-c2ccccc2)cc1C(=O)O` [CBK265941C], the viability at 28.5 h, 10 µM was 89.8%. Under `COC(=O)c1c(NC(=O)CSc2nnc3ccccn23)sc(C)c1C` [CBK265943] stands 95.7%. `COc1ccc(-c2ccc(CCC(=O)O)n2Cc2ccco2)cc1` [CBK265945]: the viability at 28.5 h, 10 µM was 92.6%. Under `NC1=C(c2nc3ccccc3s2)C(=O)CN1CCN1CCOCC1` [CBK265946] stands 93.1%; under `N#Cc1c(C(F)(F)F)cc(-c2cccs2)nc1SCC(O)CN1CCSCC1` (stereo not drawn) [CBK265947], 88.2%; under `O=C(COc1ccc(S(=O)(=O)NC2CCCCC2)cc1)N1CCN(c2cccc(Cl)c2)CC1` [CBK265948], 90.6%. Under `COc1ccc(-c2cc(-c3ccccc3)c(C#N)c(S(=O)(=O)Cc3ccccc3)n2)cc1` [CBK265949] stands 89.6%; under `NC(=S)Nn1c(CCC(=O)O)ccc1-c1cccs1` [CBK265952], 92.3%. Under `O=C(O)CCc1ccc(-c2ccc(F)cc2)n1Cc1ccco1` [CBK265953] stands 83.9%.

As for `Cc1cc(I)ccc1NC(=O)CN(c1ccccc1)S(=O)(=O)c1ccccc1[N+](=O)[O-]` [CBK265954], the viability at 28.5 h, 10 µM is 78.6%.

With `CCn1c(COc2ccccc2Cl)nnc1SCC(=O)N1c2ccccc2Sc2ccccc21` [CBK265957], the viability at 28.5 h, 10 µM stood at 114%. To `COC(=O)c1ccccc1NC(=O)CCSc1ccc(C)cc1` [CBK265958] belongs 91.9%; to `O=C(COc1ccc(S(=O)(=O)NC2CCCCC2)cc1)Nc1ccc2c(c1)OCO2` [CBK265960], 84.5%; to `Cc1ccc(Nc2nc(N)nc(CSCCO)n2)cc1` [CBK265962], 97.1%. Under `O=c1c2ccccc2nc2c3ccccc3c(NCc3ccccn3)nn12` [CBK265964] stands 89.3%.

In the case of `CCOC(=O)c1cnc2c(C)c(Cl)ccc2c1NCCN(C)C` [CBK265965], the viability at 28.5 h, 10 µM came to 102%. To `COC(=O)c1ccccc1NC(=O)CSc1nnc(-c2ccccc2Cl)[nH]1` [CBK265966] belongs 95.4%; to `N#Cc1cc2c(nc1SCC(O)COCc1ccccc1)CCCC2` (stereo not drawn) [CBK265967], 104%. Under `Clc1ccc(-c2csc3ncnc(SCc4ccco4)c23)cc1` [CBK265972] stands 90.5%; under `CCOC(=O)c1cnc2c(C)cc(Cl)cc2c1N1CCN(Cc2ccccc2)CC1` [CBK265975], 108%; under `CC(C)C12CN3CC(C(C)C)(CN(C1)C3c1ccc3c(c1)OCO3)C2=O` (stereo not drawn) [CBK265981], 100%. To `O=C(CN1C(=O)c2ccccc2S1(=O)=O)N(Cc1ccccc1)Cc1ccccc1` [CBK265982] belongs 107%; to `O=C(O)CCc1ccc(-c2ccc(Cl)cc2)n1Cc1ccco1` [CBK265984], 92.4%; to `COc1ccc(-n2c(Cc3ccccc3)nnc2SCC(=O)c2ccccc2)cc1` [CBK265989], 105%. As to `Cc1cc(C)c(NC(=O)CSc2nnc(Cc3ccccc3)n2C)c(C)c1` [CBK265990], the viability at 28.5 h, 10 µM stood at 110%. To `Cc1ccc(S(=O)(=O)NCC(=O)N2CCN(Cc3ccccc3)CC2)cc1` [CBK265991] belongs 104%; to `O=C(Nc1ccccc1N1CCOCC1)c1ccc(OCc2ccccc2)cc1` [CBK265992], 96.3%; to `COC(=O)COc1ccc(S(=O)(=O)N2CCC(C(N)=O)CC2)cc1` [CBK265993], 96.7%. To `CCc1ccc(OCC(=O)O/N=C(\N)c2ccncc2)c(Br)c1` [CBK265994] belongs 86.6%; to `Cc1ccc2nc(SCC(=O)O)nc(C)c2c1` [CBK265996], 94.1%. To `CC(=O)Oc1ccc(C(=O)Nc2ccc3c(c2)C(=O)N(CCC(=O)O)C3=O)cc1` [CBK265997] belongs 105%; to `Cn1c(COc2ccccc2Cl)nnc1SCC(=O)N1c2ccccc2Sc2ccccc21` [CBK266001], 96.5%; to `O=C(COc1cccc2ccccc12)Nc1ccc(O)cc1` [CBK266002], 88.6%.

As for `COC(=O)c1c(C)[nH]c(C(=O)CSc2ncnc3sc(C)c(-c4ccccc4)c23)c1C` [CBK266004], the viability at 28.5 h, 10 µM stood at 99.5%.

As to `CC(NC(=O)Cn1c(-c2nonc2N)nc2ccccc21)c1ccccc1` (stereo not drawn) [CBK266006], the viability at 28.5 h, 10 µM was 106%. With `COc1ccc(OC)c(NC(=O)c2c(NCc3ccncc3)sc3c2CCC3)c1` [CBK266007], the viability at 28.5 h, 10 µM was determined as 90.1%. Under `O=C(COc1ccccc1[N+](=O)[O-])Nc1ccc(Br)cc1C(=O)O` [CBK266008] stands 84.9%.

In the case of `COc1ccc(S(=O)(=O)Nc2ccc(S(=O)(=O)Nc3nccs3)cc2)cc1C` [CBK266011], the viability at 28.5 h, 10 µM was 101%. Under `CC(C)(c1ccccc1)c1ccc(OCC(=O)Nc2cccc(C(=O)O)c2)cc1` [CBK266014] stands 102%. To `CCOC(=O)c1ccc(-n2c(CCC(=O)O)ccc2-c2cccs2)cc1O` [CBK266015] belongs 103%. To `CCOc1ccc(-n2c(SCc3ccc(Br)cc3)nnc2-c2ccncc2)cc1` [CBK266017] belongs 103%. Consider `NC(=O)Nn1c(CCC(=O)O)ccc1-c1cccs1` [CBK266019], for which the viability at 28.5 h, 10 µM was 93.1%. Under `Cc1ccc(O)c(Nc2ncnc3ccccc23)c1` [CBK266020C] stands 93.2%; under `CCOC(=O)c1cnc2c(C)cc(C)cc2c1NCCCN(C)C` [CBK266021], 76.5%. Regarding `O=C(COc1ccc(S(=O)(=O)NC2CCCCC2)cc1)Nc1cccc2ccccc12` [CBK266023], the viability at 28.5 h, 10 µM was found to be 100%. Under `c1ccc(-c2ccc(OCCCCN3CCNCC3)cc2)cc1` [CBK266028G] stands 95.8%; under `CC(Oc1cccc(Cl)c1)C(=O)O/N=C(\N)Cc1cccc2ccccc12` (stereo not drawn) [CBK266033], 90.3%. Under `CCOC(=O)C1CCN(Cc2c(O)c3ccccc3oc2=O)CC1` [CBK266035] stands 70.6%. To `Cc1ccc(OCC(=O)Nc2ccc3c(c2)oc2ccccc23)cc1[N+](=O)[O-]` [CBK266036] belongs 100%; to `COC(=O)c1ccccc1NC(=O)COc1ccc(Cl)c2cccnc12` [CBK266037], 104%. With `Cc1[nH]c2ccccc2c1C(c1ccccc1OCC(=O)O)c1c(C)[nH]c2ccccc12` [CBK266038], the viability at 28.5 h, 10 µM came to 109%. Under `O=C(NCC1CCCO1)c1ccccc1Sc1ccc([N+](=O)[O-])cc1Cl` (stereo not drawn) [CBK266041] stands 88.8%; under `CN(C)C(=O)CSc1nnc(-c2cccc3ccccc23)n1-c1ccccc1` [CBK266044], 92%; under `Cc1cc(C)c(OCCNC(=O)c2ccccc2Sc2ccccc2C#N)c(C)c1` [CBK266048], 97.7%. Under `Cc1cc(Cl)c(OCCN2CCCCCC2)c(Br)c1` [CBK266049G] stands 91.7%; under `O=C(CSc1nnc(Cc2cccc3ccccc23)n1-c1ccccc1)NC1CCCCC1` [CBK266052], 102%; under `COc1ccc(NC(=O)CSc2nnc(C(O)c3ccccc3)n2C)cc1` (stereo not drawn) [CBK266053], 110%. With `Cn1c(NC(=O)CSc2nnc(Cc3cccc4ccccc34)o2)cc(=O)n(C)c1=O` [CBK266055], the viability at 28.5 h, 10 µM is 115%. Consider `Cc1cc(Cl)cc(C)c1OCCN1CCNCC1` [CBK266057G], for which the viability at 28.5 h, 10 µM worked out at 84.4%. To `COc1cccc(NC(=O)CSCc2n[nH]c(=O)[nH]2)c1` [CBK266058] belongs 95.8%; to `O=C(NC(=S)Nc1ccc(N2CCN(Cc3ccccc3Cl)CC2)cc1)c1ccco1` [CBK266066], 101%. Under `Cc1nn(Cc2ccccc2)c(C)c1NC(=O)CSc1nc2sc3c(c2c(=O)n1C)CCC3` [CBK266069] stands 96.4%. Under `Clc1ccc(SCCN2CCNCC2)cc1` [CBK266077G] stands 94.2%. Take `Cc1cc(C)c(OCCOCCN2CCNCC2)c(Br)c1` [CBK266079G]: the viability at 28.5 h, 10 µM is 99.6%. To `CC(=O)OC(COc1ccc2ccccc2c1Br)Cn1cnc2ccccc21` (stereo not drawn) [CBK266083] belongs 84.6%; to `Cc1cc(C)c2c(=O)[nH]c(SCC(=O)c3ccc(F)c(C)c3)nc2n1` [CBK266087], 102%; to `OCCN1CCN(Cc2nc(O)c3ccccc3n2)CC1` [CBK266089], 98.5%.

As for `CC(C)Oc1cccc(C(=O)Nc2ccc(N3CCN(C)CC3)cc2)c1` [CBK266090], the viability at 28.5 h, 10 µM was 90.5%. To `CN(C)C1(c2nnnn2CCOC(=O)Nc2ccc(Cl)cc2)CCCCC1` [CBK266093] belongs 94.5%. Take `COc1ccccc1NC(=O)CSc1nc(O)c2c(C)cc(C)nc2n1` [CBK266095]: the viability at 28.5 h, 10 µM amounted to 91.8%. To `CC1(C)CC(=O)C2=C(C1)Nc1nc(SCc3ccc([N+](=O)[O-])cc3)[nH]c(=O)c1C2c1cccnc1` (stereo not drawn) [CBK266096] belongs 108%; to `O=C(CSc1nnc(-c2cccnc2)n1-c1ccc(Br)cc1)Nc1cc(C(F)(F)F)ccc1Cl` [CBK266099], 96.5%; to `O=C(O)CCC(=O)Nc1ccccc1C(=O)N1CCCCC1` [CBK266100], 99.5%. Take `COC(=O)Cc1ccc(NC(=S)N2CCC(C(N)=O)(N3CCCCC3)CC2)cc1` [CBK266101]: the viability at 28.5 h, 10 µM was found to be 97.6%.

Values taken from article PMC12040169 (PLOS Biology, 2025).
